Experimental data taken from patent publication US11533913B2, “Treating water stress in plants” (Rothamsted Research Limited, priority 2015, dated 2022).

What was measured:
[1] = tested on: Spring wheat (Triticum aestivum Cadenza); test: Recovery response: regrowth (biomass) of water stressed wheat plants after re-watering; assay type: in vivo; conditions: 4-week-old wheat plants sprayed once with 30 mL of 1 mM after 9 days of drought; watering resumed 1 day after treatment
Procedure: (§1) Spring wheat (Triticum aestivum Cadenza) seeds were sown in Rothamsted Prescription Compost Mix (75% medium grade (L+P) peat, 12% screened sterilised loam, 3% medium grade vermiculite, 10% grit (lime-free), 3.5 kg Osmocote Exact 3-4 month/m^3 (Scott's UK Professional, Ipswich, Suffolk, www.scottinternational.com), 0.5 kg PG mix/m^3 (Hydro Agri Ltd., Immingham, UK), Wetting agent and Lime) and grown in controlled environment conditions with a photoperiod of 16 hours light, 8 hours dark, day/night temperatures of 20° C./16° C., photon flux density of 600 μmol m^−2 s^−1, and ambient relative humidity. Once the plants had reached Feekes stage 4, water was withheld for 10 days. On the 9th day, 30 ml 1 mM solutions of oNPE-T6P and DMNBT6P were applied to all above-ground biomass, on the 10th day the watering schedule was reinstated. Plants were harvested to measure biomass production every 5 days for 30 days after watering was reinstated. Both experiments were completed in replicates of 6.
(§2) Analysis of Variance (ANOVA) was applied to data to test for differences between treatments. A natural log transformation was used where necessary to ensure constant variance. The GENSTAT statistical system was used for this analysis (2011, 14th edition, ©VSN International Ltd, Hemel Hempstead, UK).
The effect of the signalling precursors upon plant resilience and recovery were tested. Drought is still the biggest global factor that limits crop yields, even in developed countries, such as the UK (Boyer, 1982, Science 218: 443-448).

[2] = tested on: Spring wheat (Triticum aestivum Cadenza); test: Resurrection response: regrowth of new tissue from plants cut back after drought treatment; assay type: in vivo; conditions: one application of 1 mM one day prior to re-watering, cut at 5 days after re-watering, left to regrow for 10 days
Procedure: as §1
as §2, with “UK). […]” for “UK).”

Row | SMILES | regrowth (recovery response) following resumption of watering [1] | regrowth (resurrection response) of new tissue from plants cut back after drought treatment [2]
1 | O=P(O)(O)OC[C@H]1O[C@H](O[C@H]2O[C@H](CO)[C@@H](O)[C@H](O)[C@H]2O)[C@H](O)[C@@H](O)[C@@H]1O [Compound T6P, trehalose 6-phosphate] | identical results to use of water alone | identical results to use of water alone
2 | COc1cc(COP(=O)(OCc2cc(OC)c(OC)cc2[N+](=O)[O-])OC[C@H]2O[C@H](O[C@H]3O[C@H](CO)[C@@H](O)[C@H](O)[C@H]3O)[C@H](O)[C@@H](O)[C@@H]2O)c([N+](=O)[O-])cc1OC [DMNB-T6P 2, 6-O-bis-(4,5-dimethoxy-2-nitrobenzyloxyphosphoryl)-D-trehalose] | the effects were dramatic | 
3 | CC(OP(=O)(OC[C@H]1O[C@H](O[C@H]2O[C@H](CO)[C@@H](O)[C@H](O)[C@H]2O)[C@H](O)[C@@H](O)[C@@H]1O)OC(C)c1ccccc1[N+](=O)[O-])c1ccccc1[N+](=O)[O-] (stereo partly drawn) [oNPE-T6P 3, 6-O-bis[1-(2-nitrophenyl)-ethoxyphosphoryl]-D-trehalose] | the effects were dramatic | 
